Measurements: patent US20240277772A1, “COMBINED ADMINISTRATION COMPOSITION FOR PREVENTING OR TREATING ATOPIC DERMATITIS, COMPRISING FUNCTION-ENHANCED STEM CELLS AND REGULATORY T CELLS” (SCM LIFESCIENCE CO., LTD., priority 2021, published 2024)

Tested on: mesenchymal stem cells
Experiment: qRT-PCR of IDO and TSG6 expression in mesenchymal stem cells treated with priming candidates
Type: cell-based
Details: for expression of IDO / expression of TSG6: Table 1 compositions, 24 hours, FIG. 4, compared to untreated control or to single substances; for lowest effective concentration capable of inducing significantly increased expression of both TSG6 and IDO: stem cells treated 24 hours, TNF-α and IFN-γ at 5, 10, 20 ng/ml, IFN-α at 10, 20, 40 ng/ml, FIGS. 1-3
Procedure: In a 37° C. and 5% CO2 incubator, mesenchymal stem cells in a storage state (LN2 tank storage) were thawed and cultured, and at this time, the cells were cultured in a medium (DMEM, alpha-MEM) containing 10% FBS or 4% hPL until proliferated to a cell confluence of about 80%. The cultured mesenchymal stem cells were seeded in a 100 mm dish and treated with candidate substances for enhancing the functions of the mesenchymal stem cells for 24 hours, and then the concentrations of primary candidate substances for enhancing the functions were set.
TNF-α, IFN-γ, and IFN-α were selected as the primary candidate substances, and in order to confirm the lowest effective concentration capable of increasing the expression of TNFα-stimulated gene-6 (TSG6) and indoleamine 2,3-dioxygenase (IDO) to confirm the enhanced functions, the stem cells were treated with 5, 10, and 20 ng/ml of TNF-α, 5, 10, and 20 ng/ml of IFN-γ, and 10, 20, and 40 ng/ml of IFN-α, respectively, and changes in expression of TSG6 and IDO were confirmed.
The IDO was known as an immunomodulatory factor that inhibited the proliferation of immune cells such as T cells by converting tryptophan, which was essential for T cell proliferation, into kynurenine, and the TSG6 was known as an anti-inflammatory regulator secreted from mesenchymal stem cells. After culturing the stem cells, total RNA was isolated using TRIzol (Invitrogen), and cDNA was synthesized from total RNA using PrimeScript™RT reagent Kit with gDNA Eraser (TaKaRa), and qRT-PCR was performed. The results of TSG6 and IDO according to the concentration of each candidate substance were illustrated in FIGS. 1, 2 and 3.
Through Example 1, in order to search for more function-enhanced compositions based on the candidate substances and lowest effective concentrations identified to induce the enhanced functions of stem cells, selected candidate substances and combined concentrations thereof were set as shown in Table 1. Mesenchymal stem cells were treated with the candidate combinations described in Table 1 below for 24 hours, and the stem cells were cultured as in Example 1, and then total RNA was isolated using TRIzol (Invitrogen). Thereafter, qRT-PCR was performed by synthesizing cDNA from total RNA using the PrimeScript™RT reagent Kit with gDNA Eraser (TaKaRa).
Vitamins were known to improve the proliferative ability of stem cells and maintain the stemness of stem cells when added during a stem cell culture process. Accordingly, various vitamins were treated in the stem cell culture process, and experiments were performed to confirm whether or not vitamins could achieve anti-inflammatory and immune function enhancing effects of stem cells. Specifically, the stem cells were treated with various types of vitamins shown in Table 2 below according to the method described in Example 1, and the results of confirming changes in expression of IDO and TSG6 according to treatment with each candidate substance were illustrated in FIG. 5.

| Substance | expression of IDO | expression of TSG6 | lowest effective concentration capable of inducing significantly increased expression of both TSG6 and IDO [ng/mL] |
| --- | --- | --- | --- |
| IFN-γ [priming factor for stem cells, 10 ng/ml] | increased expression | increased expression | 10 |
| IFN-α | increased expression | increased expression | 20 |
| TNF-α | increased expression | increased expression | 10 |
